Columns and labels:
Assay in all cases: ProQinase radiometric kinase panel
Conditions in all cases: mean of 2 exp.
[1] = molecular target: MKK6 (S207D/T211D) (Homo sapiens, UniProt P52564, S207D/T211D)
[2] = molecular target: TXK (Homo sapiens, UniProt P42681)
[3] = molecular target: EPHB4 (Homo sapiens, UniProt P54760)
[4] = molecular target: PKC-mu (Homo sapiens, UniProt Q15139)
[5] = molecular target: TYK2 (Homo sapiens, UniProt P29597)
[6] = molecular target: MAPKAPK5 (Homo sapiens, UniProt Q8IW41)
[7] = molecular target: CAMK2B (Homo sapiens, UniProt Q13554)
[8] = molecular target: MAP4K2 (Homo sapiens, UniProt Q12851)
[9] = molecular target: GRK4 (Homo sapiens, UniProt P32298)
[10] = molecular target: MYLK3 (Homo sapiens, UniProt Q32MK0)
[11] = molecular target: EEF2K (Homo sapiens, UniProt O00418)
[12] = molecular target: CK1-gamma3 (Homo sapiens, UniProt Q9Y6M4)
[13] = molecular target: PAK2 (Homo sapiens, UniProt Q13177)
[14] = molecular target: GSG2 (Haspin) (Homo sapiens, UniProt Q8TF76)
[15] = molecular target: CDK2/CycE1 (Homo sapiens, UniProt P24941)
[16] = molecular target: SRPK2 (Homo sapiens, UniProt P78362)
[17] = molecular target: EPHA8 (Homo sapiens, UniProt P29322)
[18] = molecular target: STK39 (Homo sapiens, UniProt Q9UEW8)
[19] = molecular target: CDK4/CycD1 (Homo sapiens, UniProt P11802)
[20] = molecular target: GSK3-alpha (Homo sapiens, UniProt P49840)
Sequence of GSK3-alpha (P49840 whole entry): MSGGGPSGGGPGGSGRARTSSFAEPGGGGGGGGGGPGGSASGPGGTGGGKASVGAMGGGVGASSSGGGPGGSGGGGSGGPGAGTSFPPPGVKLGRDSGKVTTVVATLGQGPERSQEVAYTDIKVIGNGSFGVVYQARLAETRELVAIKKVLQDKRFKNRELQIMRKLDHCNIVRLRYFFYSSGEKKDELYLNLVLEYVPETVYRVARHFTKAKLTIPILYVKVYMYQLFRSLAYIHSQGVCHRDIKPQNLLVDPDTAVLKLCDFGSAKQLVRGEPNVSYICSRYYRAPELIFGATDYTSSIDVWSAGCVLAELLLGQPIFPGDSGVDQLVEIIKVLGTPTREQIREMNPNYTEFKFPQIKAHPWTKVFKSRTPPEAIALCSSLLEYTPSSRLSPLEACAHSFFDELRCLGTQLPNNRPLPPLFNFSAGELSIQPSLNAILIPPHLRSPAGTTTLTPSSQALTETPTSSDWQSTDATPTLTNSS

[21] = molecular target: MAPKAPK3 (Homo sapiens, UniProt Q16644)
[22] = molecular target: PRKG2 (Homo sapiens, UniProt Q13237)
[23] = molecular target: TRK-C (Homo sapiens, UniProt Q16288)
Sequence of TRK-C (Q16288 32-839): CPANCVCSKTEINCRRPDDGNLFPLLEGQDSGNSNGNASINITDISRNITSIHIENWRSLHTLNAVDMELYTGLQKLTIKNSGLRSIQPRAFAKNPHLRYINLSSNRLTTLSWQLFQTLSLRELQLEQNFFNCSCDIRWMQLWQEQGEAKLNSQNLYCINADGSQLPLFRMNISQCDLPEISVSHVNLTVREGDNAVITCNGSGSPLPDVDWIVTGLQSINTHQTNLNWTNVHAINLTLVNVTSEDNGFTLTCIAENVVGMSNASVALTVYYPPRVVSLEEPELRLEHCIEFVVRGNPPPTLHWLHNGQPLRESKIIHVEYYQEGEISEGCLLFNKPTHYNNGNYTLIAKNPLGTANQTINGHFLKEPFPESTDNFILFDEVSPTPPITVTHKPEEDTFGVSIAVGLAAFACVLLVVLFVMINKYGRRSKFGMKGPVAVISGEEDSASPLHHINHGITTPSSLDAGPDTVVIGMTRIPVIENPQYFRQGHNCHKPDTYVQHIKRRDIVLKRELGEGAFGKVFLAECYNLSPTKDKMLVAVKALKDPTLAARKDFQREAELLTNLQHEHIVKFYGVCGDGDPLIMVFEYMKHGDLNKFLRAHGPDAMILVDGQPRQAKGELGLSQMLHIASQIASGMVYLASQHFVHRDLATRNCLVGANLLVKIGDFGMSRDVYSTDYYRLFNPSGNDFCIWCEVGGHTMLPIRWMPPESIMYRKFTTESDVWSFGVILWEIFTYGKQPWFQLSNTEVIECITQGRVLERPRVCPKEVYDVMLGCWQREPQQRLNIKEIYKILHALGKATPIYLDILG

[24] = molecular target: JNK2 (Homo sapiens, UniProt P45984)
Procedure: (§1) Gini coefficients were calculated and the Lorenz curve (Fig 3B) was plotted by applying the Microsoft Excel spreadsheet provided by Graczyk [44].
radiometric protein kinase assays.

[25] = molecular target: PKC-epsilon (Homo sapiens, UniProt Q02156)
[26] = molecular target: ACV-R2B (Homo sapiens, UniProt Q13705)
[27] = molecular target: IKK-beta (Homo sapiens, UniProt O14920)
Sequence of IKK-beta (O14920 whole entry): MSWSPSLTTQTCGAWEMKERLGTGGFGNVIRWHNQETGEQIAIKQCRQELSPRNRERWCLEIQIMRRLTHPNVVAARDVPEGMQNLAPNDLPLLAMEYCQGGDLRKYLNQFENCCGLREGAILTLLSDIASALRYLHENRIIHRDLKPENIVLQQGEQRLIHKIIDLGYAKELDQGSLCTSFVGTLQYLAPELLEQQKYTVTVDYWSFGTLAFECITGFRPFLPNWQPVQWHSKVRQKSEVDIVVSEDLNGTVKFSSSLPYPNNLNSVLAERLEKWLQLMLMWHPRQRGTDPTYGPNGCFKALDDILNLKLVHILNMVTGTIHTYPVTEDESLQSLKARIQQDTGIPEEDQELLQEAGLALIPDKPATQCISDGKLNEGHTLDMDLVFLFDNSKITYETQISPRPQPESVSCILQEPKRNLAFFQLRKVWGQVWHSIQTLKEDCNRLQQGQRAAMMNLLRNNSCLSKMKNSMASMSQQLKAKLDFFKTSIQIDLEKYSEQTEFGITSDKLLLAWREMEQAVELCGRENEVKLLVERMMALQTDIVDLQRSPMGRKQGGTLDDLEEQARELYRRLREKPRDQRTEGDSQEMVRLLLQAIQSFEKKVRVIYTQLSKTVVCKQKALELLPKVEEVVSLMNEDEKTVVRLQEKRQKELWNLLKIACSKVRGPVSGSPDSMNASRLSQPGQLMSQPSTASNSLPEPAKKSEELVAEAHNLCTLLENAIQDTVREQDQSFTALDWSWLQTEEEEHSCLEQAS

[28] = molecular target: Aurora-C (Homo sapiens, UniProt Q9UQB9)
[29] = molecular target: LIMK1 (Homo sapiens, UniProt P53667)
Sequence of LIMK1 (P53667 whole entry): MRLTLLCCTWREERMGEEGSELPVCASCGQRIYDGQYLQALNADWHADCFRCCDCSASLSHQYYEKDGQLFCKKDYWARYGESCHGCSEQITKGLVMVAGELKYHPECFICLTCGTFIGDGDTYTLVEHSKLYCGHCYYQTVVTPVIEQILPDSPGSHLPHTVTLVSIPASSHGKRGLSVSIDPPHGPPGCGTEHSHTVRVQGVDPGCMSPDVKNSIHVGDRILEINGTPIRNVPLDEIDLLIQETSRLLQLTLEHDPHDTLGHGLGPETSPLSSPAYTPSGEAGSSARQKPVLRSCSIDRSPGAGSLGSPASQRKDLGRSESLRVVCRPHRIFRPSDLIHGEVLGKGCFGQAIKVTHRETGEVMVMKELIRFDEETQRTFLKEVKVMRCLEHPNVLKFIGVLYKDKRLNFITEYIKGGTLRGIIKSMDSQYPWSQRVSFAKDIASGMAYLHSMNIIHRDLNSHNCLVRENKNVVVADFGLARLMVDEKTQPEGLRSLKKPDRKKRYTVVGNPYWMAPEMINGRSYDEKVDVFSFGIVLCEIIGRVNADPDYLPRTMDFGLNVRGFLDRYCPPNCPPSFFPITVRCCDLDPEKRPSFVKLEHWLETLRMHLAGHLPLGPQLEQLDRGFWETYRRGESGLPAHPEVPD
Procedure: as §1
radiometric protein kinase assays.

[30] = molecular target: WEE1 (Homo sapiens, UniProt P30291)
[31] = molecular target: PAK7 (Homo sapiens, UniProt Q9P286)
[32] = molecular target: TRK-B (Homo sapiens, UniProt Q16620)
[33] = molecular target: RPS6KA6 (Homo sapiens, UniProt Q9UK32)
[34] = molecular target: SNARK (Homo sapiens, UniProt Q9H093)
[35] = molecular target: CSF1-R (Homo sapiens, UniProt P07333)
[36] = molecular target: BRSK1 (Homo sapiens, UniProt Q8TDC3)
[37] = molecular target: ROS (Homo sapiens, UniProt P08922)
[38] = molecular target: RON (Homo sapiens, UniProt Q04912)
Sequence of RON (Q04912 25-1400): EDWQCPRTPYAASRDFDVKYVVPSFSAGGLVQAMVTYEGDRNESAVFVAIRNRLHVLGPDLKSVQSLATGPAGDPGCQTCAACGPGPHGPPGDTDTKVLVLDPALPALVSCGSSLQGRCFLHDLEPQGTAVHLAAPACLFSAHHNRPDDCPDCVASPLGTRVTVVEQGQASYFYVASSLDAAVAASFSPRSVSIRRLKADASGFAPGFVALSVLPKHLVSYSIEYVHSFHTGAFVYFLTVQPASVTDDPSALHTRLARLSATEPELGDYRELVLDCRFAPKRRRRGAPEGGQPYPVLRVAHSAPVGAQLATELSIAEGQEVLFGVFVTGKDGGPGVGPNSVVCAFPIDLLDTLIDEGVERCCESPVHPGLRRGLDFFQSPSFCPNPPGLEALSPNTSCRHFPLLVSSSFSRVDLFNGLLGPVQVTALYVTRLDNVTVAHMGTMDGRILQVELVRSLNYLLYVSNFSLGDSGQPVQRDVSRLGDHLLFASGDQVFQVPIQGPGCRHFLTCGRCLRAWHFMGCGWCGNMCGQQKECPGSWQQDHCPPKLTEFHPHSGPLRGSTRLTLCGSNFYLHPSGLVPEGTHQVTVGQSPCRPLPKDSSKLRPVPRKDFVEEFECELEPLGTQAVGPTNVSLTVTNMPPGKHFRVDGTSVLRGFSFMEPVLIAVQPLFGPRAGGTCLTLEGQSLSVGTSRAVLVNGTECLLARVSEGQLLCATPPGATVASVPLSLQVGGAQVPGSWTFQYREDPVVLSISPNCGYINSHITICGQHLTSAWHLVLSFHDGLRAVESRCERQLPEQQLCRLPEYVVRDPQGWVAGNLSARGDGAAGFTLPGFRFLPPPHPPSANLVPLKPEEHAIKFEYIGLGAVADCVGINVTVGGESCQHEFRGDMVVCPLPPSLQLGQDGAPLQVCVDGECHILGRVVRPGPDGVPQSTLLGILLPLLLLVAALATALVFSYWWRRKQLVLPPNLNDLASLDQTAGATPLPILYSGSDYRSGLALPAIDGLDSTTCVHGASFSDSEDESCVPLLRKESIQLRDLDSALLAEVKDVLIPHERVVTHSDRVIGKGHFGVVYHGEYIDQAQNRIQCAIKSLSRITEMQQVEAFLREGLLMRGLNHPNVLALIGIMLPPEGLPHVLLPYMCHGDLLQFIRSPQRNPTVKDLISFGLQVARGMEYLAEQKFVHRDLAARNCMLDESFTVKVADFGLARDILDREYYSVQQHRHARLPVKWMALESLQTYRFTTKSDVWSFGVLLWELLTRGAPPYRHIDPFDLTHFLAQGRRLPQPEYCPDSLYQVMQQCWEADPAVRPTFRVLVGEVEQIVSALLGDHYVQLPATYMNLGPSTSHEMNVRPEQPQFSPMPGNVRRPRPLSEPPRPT

[39] = molecular target: PAK1 (Homo sapiens, UniProt Q13153)

Sequence of PKC-mu (Q15139 whole entry): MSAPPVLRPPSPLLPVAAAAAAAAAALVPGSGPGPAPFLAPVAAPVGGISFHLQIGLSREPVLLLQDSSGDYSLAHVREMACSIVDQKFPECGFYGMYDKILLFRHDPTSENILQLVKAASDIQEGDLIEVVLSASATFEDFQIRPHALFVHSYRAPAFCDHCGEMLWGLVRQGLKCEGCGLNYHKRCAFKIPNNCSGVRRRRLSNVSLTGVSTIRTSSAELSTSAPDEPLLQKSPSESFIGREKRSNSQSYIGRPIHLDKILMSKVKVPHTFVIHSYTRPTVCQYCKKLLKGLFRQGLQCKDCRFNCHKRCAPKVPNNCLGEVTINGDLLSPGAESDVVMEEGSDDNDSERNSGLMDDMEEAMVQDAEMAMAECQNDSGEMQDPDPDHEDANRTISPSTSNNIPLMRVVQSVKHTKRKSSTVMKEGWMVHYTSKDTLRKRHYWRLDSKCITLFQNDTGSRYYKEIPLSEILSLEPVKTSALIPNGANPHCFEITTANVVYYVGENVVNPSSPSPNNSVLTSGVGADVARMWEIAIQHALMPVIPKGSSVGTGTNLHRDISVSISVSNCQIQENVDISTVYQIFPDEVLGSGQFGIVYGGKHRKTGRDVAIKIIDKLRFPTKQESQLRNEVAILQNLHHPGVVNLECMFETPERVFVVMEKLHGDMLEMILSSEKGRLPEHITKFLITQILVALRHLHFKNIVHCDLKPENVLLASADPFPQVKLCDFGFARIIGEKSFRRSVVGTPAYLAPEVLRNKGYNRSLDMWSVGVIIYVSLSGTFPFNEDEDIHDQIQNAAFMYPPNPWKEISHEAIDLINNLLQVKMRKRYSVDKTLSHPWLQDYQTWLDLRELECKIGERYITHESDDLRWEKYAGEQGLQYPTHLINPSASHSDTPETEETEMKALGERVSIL

For COc1ccc2c3ccnc(Cl)c3n(CC#N)c2c1 [AnnH75], the “residual activity at 1 µM, Mean” value [1] was 100 % of control, the “residual activity at 1 µM, Mean” value [2] was 94 % of control and the “residual activity at 1 µM, Mean” value [3] was 95 % of control. The “residual activity at 1 µM, Mean” value [4] was 100 % of control, the “residual activity at 1 µM, Mean” value [5] was 96 % of control and the “residual activity at 1 µM, Mean” value [6] was 89 % of control. For the same molecule, the “residual activity at 1 µM, Mean” value [7] was 92 % of control, the “residual activity at 1 µM, Mean” value [8] was 93 % of control and the “residual activity at 1 µM, Mean” value [9] was 49 % of control. The “residual activity at 1 µM, Mean” value [10] was 94 % of control, the “residual activity at 1 µM, Mean” value [11] was 98 % of control and the “residual activity at 1 µM, Mean” value [12] was 93 % of control. For the same molecule, the “residual activity at 1 µM, Mean” value [13] was 105 % of control, the “residual activity at 1 µM, Mean” value [14] was 5 % of control and the “residual activity at 1 µM, Mean” value [15] was 97 % of control. The “residual activity at 1 µM, Mean” value [16] was 106 % of control, the “residual activity at 1 µM, Mean” value [17] was 89 % of control and the “residual activity at 1 µM, Mean” value [18] was 85 % of control. The “residual activity at 1 µM, Mean” value [19] was 100 % of control, the “residual activity at 1 µM, Mean” value [20] was 81 % of control and the “residual activity at 1 µM, Mean” value [21] was 94 % of control. The “residual activity at 1 µM, Mean” value [22] was 85 % of control, the “residual activity at 1 µM, Mean” value [23] was 87 % of control and the “residual activity at 1 µM, Mean” value [24] was 100 % of control. For the same molecule, the “residual activity at 1 µM, Mean” value [25] was 39 % of control, the “residual activity at 1 µM, Mean” value [26] was 97 % of control and the “residual activity at 1 µM, Mean” value [27] was 91 % of control. For the same molecule, the “residual activity at 1 µM, Mean” value [28] was 97 % of control, the “residual activity at 1 µM, Mean” value [29] was 57 % of control and the “residual activity at 1 µM, Mean” value [30] was 100 % of control. For the same molecule, the “residual activity at 1 µM, Mean” value [31] was 90 % of control, the “residual activity at 1 µM, Mean” value [32] was 72 % of control and the “residual activity at 1 µM, Mean” value [33] was 98 % of control. The “residual activity at 1 µM, Mean” value [34] was 95 % of control, the “residual activity at 1 µM, Mean” value [35] was 106 % of control and the “residual activity at 1 µM, Mean” value [36] was 107 % of control. The “residual activity at 1 µM, Mean” value [37] was 94 % of control, the “residual activity at 1 µM, Mean” value [38] was 96 % of control and the “residual activity at 1 µM, Mean” value [39] was 103 % of control.

From PMC4508061, “Selectivity Profiling and Biological Activity of Novel β-Carbolines as Potent and Selective DYRK1 Kinase Inhibitors” (PLoS ONE, 2015)
